Test results published in patent US20260347373A1, “HETEROCYCLIC COMPOUNDS, COMPOSITIONS THEREOF, AND METHODS OF TREATMENT THEREWITH” (BeOne Medicines I GmbH, priority 2023, published 2026).

Tests used:
KRAS G12D = KRAS G12D (Homo sapiens, UniProt P01116, G12D); test: KRAS G12D Probe Displacement Assay (TR-FRET, GDP-loaded); format: binding; details: KRAS G12D, read-out: KRAS^G12D Probe Displacement Assay IC50
Text: (§1) The synthetic routes of probe 1 and 2, which have been disclosed in PCT/CN2022/070676, are hereby incorporated herein.

WT KRAS = WT KRAS (Homo sapiens, UniProt P01116); test: KRAS WT Probe Displacement Assay (TR-FRET, GDP-loaded); format: binding; details: KRAS WT, read-out: KRAS^WT Probe Displacement Assay IC50
Text: as §1

Chain of WT KRAS (P01116 1-188 isoform P01116-2): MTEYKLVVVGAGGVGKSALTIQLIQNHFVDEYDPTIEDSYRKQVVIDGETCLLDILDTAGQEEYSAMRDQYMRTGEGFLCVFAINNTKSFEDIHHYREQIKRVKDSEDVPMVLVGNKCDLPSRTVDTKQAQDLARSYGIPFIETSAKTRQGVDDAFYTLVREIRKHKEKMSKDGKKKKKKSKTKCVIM
Chain of KRAS G12D (P01116 1-188 isoform P01116-2 G12D): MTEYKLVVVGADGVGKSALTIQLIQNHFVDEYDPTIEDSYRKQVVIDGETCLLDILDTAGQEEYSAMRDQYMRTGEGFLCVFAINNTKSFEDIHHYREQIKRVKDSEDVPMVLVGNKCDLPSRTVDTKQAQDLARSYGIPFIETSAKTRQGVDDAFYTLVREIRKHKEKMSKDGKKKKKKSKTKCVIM

Structure (SMILES) | IC50 (KRAS G12D) [nM] | IC50 (WT KRAS) [nM]
Cc1cc(N)cc(-c2nc3c4c(nc(OCC5(CN6CC(F)C6)CC5)nc4c2F)N2C[C@H]4CC[C@H](N4)[C@H]2CCO3)c1C(F)(F)F [Example 69, 3-((6aR,7S,10R)-1-fluoro-13-((1-((3-fluoroazetidin-1-yl)methyl)cyclopropyl)methoxy)-5,6,6a,7,8,9,10,11-octahydro-4-oxa-3,11a,12,14,15-pentaaza-7,10-methanocyclohepta[4,5]cycloocta [1,2,3-de]naphthalen-2-yl)-5-methyl-4-(trifluoromethyl)aniline] | < 0.3 | 3 to 1000
Cc1cc(N)cc(-c2nc3c4c(nc(OCC5(CN6CCC(F)(F)CC6)CC5)nc4c2F)N2C[C@H]4CC[C@H](N4)[C@H]2CCO3)c1C(F)(F)F [Example 70, 3-((6aR,7S,10R)-13-((1-((4,4-difluoropiperidin-1-yl)methyl)cyclopropyl)methoxy)-1-fluoro-5,6,6a,7,8,9,10,11-octahydro-4-oxa-3,11a,12,14,15-pentaaza-7,10-methanocyclohepta[4,5]cycloocta [1,2,3-de]naphthalen-2-yl)-5-methyl-4-(trifluoromethyl)aniline] | < 0.3 | 0.3 to 3
Cc1cc(N)cc(-c2nc3c4c(nc(OCC5(CN6CC7CC7C6)CC5)nc4c2F)N2C[C@H]4CC[C@H](N4)[C@H]2CCO3)c1C(F)(F)F (stereo partly drawn) [Example 71, 3-((6aR,7S,10R)-13-((1-((3-azabicyclo[3.1.0]hexan-3-yl)methyl)cyclopropyl)methoxy)-1-fluoro-5,6,6a,7,8,9,10,11-octahydro-4-oxa-3,11a,12,14,15-pentaaza-7,10-methanocyclohepta[4,5]cycloocta [1,2,3-de]naphthalen-2-yl)-5-methyl-4-(trifluoromethyl)aniline] | < 0.3 | 3 to 1000
Nc1cc(Cl)c(C(F)(F)F)c(-c2nc3c4c(nc(OCC56C[C@@H](F)CN5C[C@H](F)C6)nc4c2F)N2C[C@H]4CC[C@H](N4)[C@H]2CCO3)c1 [Example 72, 3-chloro-5-((6aR,7S,10R)-13-(((2R,6R)-2,6-difluorotetrahydro-1H-pyrrolizin-7a(5H)-yl)methoxy)-1-fluoro-5,6,6a,7,8,9,10,11-octahydro-4-oxa-3,11a,12,14,15-pentaaza-7,10-methanocyclohepta[4,5]cycloocta [1,2,3-de]naphthalen-2-yl)-4-(trifluoromethyl)aniline] | < 0.3 | 3 to 1000
[2H]C([2H])([2H])c1cc(N)cc(-c2nc3c4c(nc(OCC56C[C@@H](F)CN5C[C@H](F)C6)nc4c2F)N2C[C@H]4CC[C@H](N4)[C@H]2CCO3)c1C(F)(F)F [Example 73, 3-((6aR,7S,10R)-13-(((2R,6R)-2,6-difluorotetrahydro-1H-pyrrolizin-7a(5H)-yl)methoxy)-1-fluoro-5,6,6a,7,8,9,10,11-octahydro-4-oxa-3,11a,12,14,15-pentaaza-7,10-methanocyclohepta[4,5]cycloocta [1,2,3-de]naphthalen-2-yl)-5-(methyl-d3)-4-(trifluoromethyl)aniline] | < 0.3 | 3 to 1000
Cc1cc(N)cc(-c2nc3c4c(nc(O[C@@H](C)[C@@H]5C[C@@H](F)CN5C)nc4c2F)N2C[C@H]4CC[C@H](N4)[C@H]2CCO3)c1C(F)(F)F [Example 74, 3-((6aR,7S,10R)-1-fluoro-13-((S)-1-((2S,4R)-4-fluoro-1-methylpyrrolidin-2-yl)ethoxy)-5,6,6a,7,8,9,10,11-octahydro-4-oxa-3,11a,12,14,15-pentaaza-7,10methanocyclohepta[4,5]cycloocta [1,2,3-de]naphthalen-2-yl)-5-methyl-4-(trifluoromethyl)aniline] | < 0.3 | 3 to 1000
Cc1cc(N)cc(-c2nc3c4c(nc(OCC5(CN6CCCC6)CC5)nc4c2F)N2C[C@H]4CC[C@H](N4)[C@H]2CCO3)c1C(F)(F)F [Example 77, 3-((6aR,7S,10R)-1-fluoro-13-((1-(pyrrolidin-1-ylmethyl)cyclopropyl)methoxy)-5,6,6a,7,8,9,10,11-octahydro-4-oxa-3,11a,12,14,15-pentaaza-7,10-methanocyclohepta[4,5]cycloocta[1,2,3-de]naphthalen-2-yl)-5-methyl-4-(trifluoromethyl)aniline] | < 0.3 | 3 to 1000
Cc1cc(N)cc(-c2nc3c4c(nc(OCC5(CN6CCC6)CC5)nc4c2F)N2C[C@H]4CC[C@H](N4)[C@H]2CCO3)c1C(F)(F)F [Example 78, 3-((6aR,7S,10R)-13-((1-(azetidin-1-ylmethyl)cyclopropyl)methoxy)-1-fluoro-5,6,6a,7,8,9,10,11-octahydro-4-oxa-3, 11a,12,14,15-pentaaza-7,10-methanocyclohepta [4,5]cycloocta [1,2,3-de]naphthalen-2-yl)-5-methyl-4-(trifluoromethyl)aniline] | 0.3 to 3 | 3 to 1000
Cc1cc(N)cc(-c2nc3c4c(nc(OCC5(CN6CC(C(F)(F)F)C6)CC5)nc4c2F)N2C[C@H]4CC[C@H](N4)[C@H]2CCO3)c1C(F)(F)F [Example 79, 3-((6aR,7S,10R)-1-fluoro-13-((1-((3-(trifluoromethyl)azetidin-1-yl)methyl)cyclopropyl)methoxy)-5,6,6a,7,8,9,10,11-octahydro-4-oxa-3,11a,12,14,15-pentaaza-7,10-methanocyclohepta [4,5]cycloocta [1,2,3-de]naphthalen-2-yl)-5-methyl-4-(trifluoromethyl)aniline] | < 0.3 | 3 to 1000
Cc1cc(N)cc(-c2nc3c4c(nc(OCC5(CN6CC(O)(C(F)(F)F)C6)CC5)nc4c2F)N2C[C@H]4CC[C@H](N4)[C@H]2CCO3)c1C(F)(F)F [Example 80, 1-((1-((((6aR,7S,10R)-2-(5-amino-3-methyl-2-(trifluoromethyl)phenyl)-1-fluoro-5,6,6a,7,8,9,10,11-octahydro-4-oxa-3,11a,12,14,15-pentaaza-7,10-methanocyclohepta[4,5]cycloocta [1,2,3-de]naphthalen-13-yl)oxy)methyl)cyclopropyl)methyl)-3-(trifluoromethyl) azetidin-3-ol] | < 0.3 | 3 to 1000
Cc1cc(N)cc(-c2nc3c4c(nc(OCC5(CN6CC(C)(O)C6)CC5)nc4c2F)N2C[C@H]4CC[C@H](N4)[C@H]2CCO3)c1C(F)(F)F [Example 81, 1-((1-((((6aR,7S, 10R)-2-(5-amino-3-methyl-2-(trifluoromethyl)phenyl)-1-fluoro-5,6,6a,7,8,9,10,11-octahydro-4-oxa-3,11a,12,14,15-pentaaza-7,10-methanocyclohepta [4,5]cycloocta [1,2,3-de]naphthalen-13-yl)oxy)methyl)cyclopropyl)methyl)-3-methylazetidin-3-ol] | < 0.3 | 3 to 1000
Cc1cc(N)cc(-c2nc3c4c(nc(OCC5(CN6CC(F)(F)C6)CC5)nc4c2F)N2C[C@H]4CC[C@H](N4)[C@H]2CCO3)c1C(F)(F)F [Example 82, 3-((6aR,7S,10R)-13-((1-((3,3-difluoroazetidin-1-yl)methyl)cyclopropyl)methoxy)-1-fluoro-5,6,6a,7,8,9,10,11-octahydro-4-oxa-3,11a,12,14,15-pentaaza-7,10-methanocyclohepta [4,5]cycloocta [1,2,3-de]naphthalen-2-yl)-5-methyl-4-(trifluoromethyl)aniline] | 0.3 to 3 | 3 to 1000
